Measured values: US20240016785A1 (Delta 4 GmbH, priority 2020, published 2024)

What was measured:
[1] = system: Adriamycin nephropathy in Balb/c mice
Method: Adriamycin (Doxorubicin; Sigma, D1515-10 mg) was diluted in ddH2O. To induce FSGS, a dose of 10.5 mg/kg mouse was injected i.v. into the tail vein using 27G needles, i. e. a total volume of 200 μl volume per 25 g mouse.
For tail vein injection, mice were anaesthetized using Ketanest (Pfizer, 25 mg/ml vials) and Rompun (Bayer, 20 mg/ml injection solution). A final mix of 12.5 mg/ml Ketanest and 0.25% Rompun in 0.9% NaCl solution was prepared and 200 μl/25 g mouse were injected.
Female Balb/c mice were obtained from the animal breeding facility of the Medical University (Abteilung kir Labortierkunde, Himberg, Austria). 12-16 weeks old animals with a weight >20 g were used for the experiments and adjusted for weight and age. Animals were allowed acclimatization of at least 7 days. Animals were marked by ear or toe clip codes to allow identification. Adriamycin nephropathy in Balb/c mice is the most commonly used animal model for preclinical FSGS studies and shares the central features with human FSGS.
Standard commercial chow from ssniff (ssniff Spezialdiaten GmbH, Soest, Germany) contained crude protein (19%), crude fat (3.3%), crude fiber (4.9%), crude ash (6.4%), starch (36.5%), sugar (4.7%). […] All animals were allowed to eat ad libitum assuming a daily average uptake of ˜4 grams/mouse (according to animal care guideline of the Johns Hopkins University,
Spot urine was collected every week and Creatinine and protein levels were measured.
Urinary albumin was measured by ELISA. 96-well plates were coated over night at 4° C. with 100 μl antibody solution Anti Mouse Serum Albumin antibody (Abcam ab34807, Lot GR3242102-4; diluted 1:2,000) in coating buffer (3.7 g NaHCO3; 0,64 g Na2CO3; 1L distilled water). The remaining procedure was performed at room temperature. Wells were washed 3× with HBSS (Sigma H8264-500 ML) +0,05% Tween-20 (Bio-Rad, #1706531) and blocked in ELISA/ELISPOT Diluent (eBioscience, 00-4202-56) and washed again for 3×. Samples and standard curve were both diluted in ELISA/ELISPOT diluent were incubated for 2 h, followed by 3 wash steps with HBSS+0,05% Tween-20, incubated with HRP antibody Anti Mouse Serum Albumin antibody (Abcam ab19195, Lot GR3242102-4; diluted 1:100,000) for 1 h, followed by 5 wash steps. Reaction was developed with TMB One Solution (Promega, G7431) and stopped with 2N H2SO4. Standard curves were generated with Mouse Albumin (Merck/Sigma, 126674-25MG). 450 nm absorbance was measured on an Epoch Microplate reader (BioTek) using GenS 1.10 software.
At the end of the experiment kidneys were removed, embedded in paraffin and PAS (Periodic acid-Schiff) staining was performed. Histology was thoroughly evaluated and the amount of sclerotic glomeruli and protein casts was quantified.
R version 4.0.2 was used for statistical analysis. Student's t-test was used for comparing UPCR and UACR values between samples from treated and control mice for each individual time point and to assess differences in histological parameters. Repeated measures ANOVA was performed to analyse the drug's impact on UPCR and UACR over time using the respective functions in the rstatix package (V0.6.0). ggplot2 (V3.3.2) and ggpubr (V0.4.0) packages were used for generating the graphical visualizations.
In two independent experiments (Experiment 1 and 2), 34 female Balb/c mice were injected with 10.5 mg/kg adriamycin into the tail vein (see table 2). […] Spot urine was collected weekly, kidneys were harvested at sacrifice. 10.5 mg/kg Adriamycin were injected into the tail vein. […] Urine was collected and weight was measured weekly. The experiments lasted about 5 weeks.

[2] = system: podocytes of animals with adriamycin induced nephropathy; details: animals treated with clopidogrel as in Example 2, vs untreated adriamycin nephropathy animals
[3] = system: adriamycin induced nephropathy in BALB/c mice
Method: Control mice were injected with 0.9% saline. At least 6 mice were analyzed per group. Mice were monitored daily for signs of pain, altered movement, or reduced food uptake and sacrificed by cervical dislocation. Tested drugs were administered per oral administration via pre-mixed chow at drug doses based on literature research.
Urinary albumin levels were assessed by ELISA, urinary total protein and urinary creatinine levels were measured on the Roche Cobas system, using routine laboratory kits. Urinary protein/creatinine (UPCR) ratio and urinary albumin/creatinine ratio (UACR) were assessed at different time points. Weight and physical fitness scores were monitored on a daily basis. At the end of the experiment, tissue sections, plasma and urine samples were collected and stored until further analysis.
Repeated measures ANOVA across timepoints was calculated using the R statistical software framework.

## COC(=O)[C@H](c1ccccc1Cl)N1CCc2sccc2C1 [Clopidogrel, (S)-Methyl-(2-chlorphenyl)-2-(6,7-dihydro-4H-thieno[3,2-c]pyridin-5-yl)acetate]
[1]; PAS staining, untreated control group went up to 35%
  glomerular sclerosis index (sclerotic glomeruli of all glomeruli), highest reached in any sample: ≤ 4%
[1]; both experiments together, average across all time points, chow + 200 mg/kg Clopidogrel (~25-30 mg/kg mouse/day) from 48 h after adriamycin 10.5 mg/kg i.v., vs control mice
  reduction of UPCR (urinary protein to creatinine ratio): 49%
[1]; both experiments together, average across all time points, chow + 200 mg/kg Clopidogrel, vs control mice
  reduction of UACR (urinary albumin to creatinine ratio): 61%
[1]; clopidogrel-treated group, control average 2.67, p=0.038
  average histopathological damage score: 0.86
[1]; histopathology, FIG. 8A, B
  severe disease (glomerular sclerosis): completely prevented severe disease
[1]; overall, both experiments, weight measured weekly, vs control mice
  reduction of ADR-associated weight loss: 48%
[1]; vs control group, FIG. 8C
  tubular ectasia, determined by protein cylinders in PAS staining: strongly ameliorated
[1]; weekly over the course of the experiments
  weight loss compared to control mice: less weight loss
[2]
  podocyte injury (podocytopathy) by electron microscopy: significantly reduced podocyte injury
[3]; FIG. 1, mice could recover from Adriamycin induced FSGS in this experiment
  UPCR at 37 days after start, compared with Ctrl mice: reduced to similar levels
[3]; adriamycin approx. 9 mg/kg, drug via pre-mixed chow, p=0.009 (drug)
  effect of drug administration on UPCR, repeated measures ANOVA across timepoints: significant
